From patent US7060822B1, “2-pyrazolin-5-ones” (Abbott GmbH & Co. KG, priority 1999, dated 2006)

Question: Which melting point does the source give for `COc1ccc(CC2=NNC(=O)C2=Cc2c[nH]c3ccccc23)cc1` [Example 215, 4-[(Indol-3-yl)methylene]-3-(4-methoxybenzyl)-2-pyrazolin-5-one] here?
Answer: The melting point was 265 to 270 °C.

Question: With `Cc1ccc(OCC2=NNC(=O)C2=Cc2c[nH]c3ccccc23)cc1` [Example 216, 4-[(Indol-3-yl)methylene]-3-(4-methylphenyloxymethyl)-2-pyrazolin-5-one] as the molecule, how does the melting point read?
Answer: The melting point was 288 to 291 °C.

Question: With `O=C1NN=C(CCc2ccccc2)C1=Cc1c[nH]c2ccccc12` [Example 217, 4-[(Indol-3-yl)methylene]-3-phenylethyl-2-pyrazolin-5-one] as the molecule, how does the melting point read?
Answer: Its melting point is 268 to 270 °C.

Question: Which melting point does the source give for `Cc1ccc(CC2=NNC(=O)C2=Cc2c[nH]c3ccccc23)cc1` [Example 219, 4-[(Indol-3-yl)methylene]-3-(4-methylbenzyl)-2-pyrazolin-5-one] here?
Answer: The melting point was 280 to 282 °C.

Question: For `O=C1NN=C(Nc2ccccc2)C1=Cc1c[nH]c2ccccc12` [Example 220, 4-[(Indol-3-yl)methylene]-3-phenylamino-2-pyrazolin-5-one], which melting point is on record?
Answer: The melting point was 265 to 267 °C.

Question: Which melting point does the source give for `Cc1ccc(NC2=NNC(=O)C2=Cc2c[nH]c3ccccc23)cc1` [Example 221, 4-[(Indol-3-yl)methylene]-3-(4-methylphenylamino)-2-pyrazolin-5-one] here?
Answer: The melting point was 255 to 257 °C.

Question: For `COc1ccc(NC2=NNC(=O)C2=Cc2c[nH]c3ccccc23)cc1` [Example 222, 4-[(Indol-3-yl)methylene]-3-(4-methoxyphenylamino)-2-pyrazolin-5-one], which melting point is on record?
Answer: Its melting point is 265 to 267 °C.

Question: Which melting point does the source give for `O=C1NN=C(Cc2ccc(Cl)cc2)C1=Cc1c[nH]c2ccccc12` [Example 223, 3-(4-Chlorobenzyl)-4-[(indol-3-yl)methylene]-2-pyrazolin-5-one] here?
Answer: Its melting point is 274 to 277 °C.

Question: Which melting point does the source give for `COc1ccc(CC2=NNC(=O)C2=Cc2cn(CCCCO)c3ccccc23)cc1` [Example 224, 4-{[1-(4-hydroxybutyl)indol-3-yl]methylene}-3-(4-methoxybenzyl)-2-pyrazolin-5-one] here?
Answer: Its melting point is 204 to 206 °C.

Question: Which melting point does the source give for `O=C1NN=C(Nc2ccc(Cl)cc2)C1=Cc1c[nH]c2ccccc12` [Example 225, 3-(4-Chlorophenylamino)-4-[(indol-3-yl)methylene]-2-pyrazolin-5-one] here?
Answer: Its melting point is 248 to 250 °C.

Question: For `COc1cccc(CC2=NNC(=O)C2=Cc2c[nH]c3ccccc23)c1` [Example 226, 4-[(Indol-3-yl)methylene]-3-(3-methoxybenzyl)-2-pyrazolin-5-one], which melting point is on record?
Answer: The melting point was 288 to 290 °C.

Question: Which melting point does the source give for `COc1ccc(CC2=NNC(=O)C2=Cc2c[nH]c3ccccc23)cc1OC` [Example 227, 3-(3,4-dimethoxybenzyl)-4-[(indol-3-yl)methylene]-2-pyrazolin-5-one] here?
Answer: Its melting point is 282 to 284 °C.

Question: With `O=C1NN=C(Cc2ccc(O)cc2)C1=Cc1c[nH]c2ccccc12` [Example 228, 3-(4-hydroxybenzyl)-4-[(indol-3-yl)methylene]-2-pyrazolin-5-one] as the molecule, how does the melting point read?
Answer: The melting point was 295 to 300 °C.

Question: For `O=C1NN=C(COc2cccc(Cl)c2)C1=Cc1c[nH]c2ccccc12` [Example 229, 3-(3-Chlorophenyloxymethyl)-4-[(indol-3-yl)methylene]-2-pyrazolin-5-one], which melting point is on record?
Answer: The melting point was 265 to 268 °C.

Question: Which melting point does the source give for `O=C1NN=C(c2c[nH]c3ccccc23)C1=Cc1c[nH]c2ccccc12` [Example 230, 3-(Indol-3-yl)-4-[(indol-3-yl)methylene]-2-pyrazolin-5-one] here?
Answer: Its melting point is 288 to 292 °C.

Question: For `COc1ccc(CCC2=NNC(=O)C2=Cc2c[nH]c3ccccc23)cc1` [Example 231, 4-[(Indol-3-yl)methylene]-3-(4-methoxyphenylethyl)-2-pyrazolin-5-one], which melting point is on record?
Answer: The melting point was 266 to 268 °C.

Question: For `O=C1NN=C(COc2ccc(-c3ccccc3)cc2)C1=Cc1c[nH]c2ccccc12` [Example 232, 4-[(Indol-3-yl)methylene]-3-(4-phenylphenyloxymethyl)-2-pyrazolin-5-one], which melting point is on record?
Answer: The melting point was 295 to 296 °C.

Question: With `CC(CC1=NNC(=O)C1=Cc1c[nH]c2ccccc12)c1ccccc1` (stereo not shown) [Example 233, 4-[(Indol-3-yl)methylene]-3-(2-phenylpropyl)-2-pyrazolin-5-one] as the molecule, how does the melting point read?
Answer: The melting point was 253 to 255 °C.

Question: For `O=C1NN=C(CCCc2ccccc2)C1=Cc1c[nH]c2ccccc12` [Example 234, 4-[(Indol-3-yl)methylene]-3-(3-phenylpropyl)-2-pyrazolin-5-one], which melting point is on record?
Answer: The melting point was 218 to 220 °C.

Question: With `O=C1NN=C(CCc2ccc(O)cc2)C1=Cc1c[nH]c2ccccc12` [Example 235, 3-(4-Hydroxyphenylethyl)-4-[(indol-3-yl)methylene]-2-pyrazolin-5-one] as the molecule, how does the melting point read?
Answer: The melting point was 271 to 275 °C.

Question: For `Cc1ccc(CCC2=NNC(=O)C2=Cc2c[nH]c3ccccc23)cc1` [Example 236, 4-[(Indol-3-yl)methylene]-3-(4-methylphenylethyl)-2-pyrazolin-5-one], which melting point is on record?
Answer: The melting point was 244 to 245 °C.

Question: For `CCOC1=NNC(=O)C1=Cc1c[nH]c2ccccc12` [Example 237, 3-Ethoxy-4-[(indol-3-yl)methylene]-2-pyrazolin-5-one], which melting point is on record?
Answer: The melting point was 248 to 250 °C.

Question: With `CC(C)OC1=NNC(=O)C1=Cc1cn(CCCCO)c2ccccc12` [Example 238, 4-{[1-(4-Hydroxybutyl)indol-3-yl]methylene}-3-isopropoxy-2-pyrazolin-5-one] as the molecule, how does the melting point read?
Answer: The melting point was 210 to 212 °C.

Question: Which melting point does the source give for `O=C1NN=C(CCc2ccccc2)C1=Cc1cn(CCCCO)c2ccccc12` [Example 239, 4-{[1-(4-Hydroxybutyl)indol-3-yl]methylene}-3-phenylethyl-2-pyrazolin-5-one] here?
Answer: The melting point was 205 to 207 °C.

Question: With `O=C1NN=C(CCc2ccc([N+](=O)[O-])cc2)C1=Cc1c[nH]c2ccccc12` [Example 240, 4-[(Indol-3-yl)methylene]-3-(4-nitrophenylethyl)-2-pyrazolin-5-one] as the molecule, how does the melting point read?
Answer: Its melting point is 295 to 297 °C.

Question: With `CCCOC1=NNC(=O)C1=Cc1c[nH]c2ccccc12` [Example 241, 4-[(Indol-3-yl)methylene]-3-propoxy-2-pyrazolin-5-one] as the molecule, how does the melting point read?
Answer: The melting point was 246 to 247 °C.

Question: For `O=C1NN=C(Nc2ccc(F)cc2)C1=Cc1c[nH]c2ccccc12` [Example 242, 3-(4-Fluorophenylamino)4-[(indol-3-yl)methylene]--2-pyrazolin-5-one], which melting point is on record?
Answer: The melting point was 251 to 252 °C.

Question: With `Nc1ccc(CCC2=NNC(=O)C2=Cc2c[nH]c3ccccc23)cc1` [Example 243, 3-(4-Aminophenylethyl)-4-[(indol-3-yl)methylene]-2-pyrazolin-5-one] as the molecule, how does the melting point read?
Answer: The melting point was 244 to 246 °C.

Question: With `Cc1[nH]c2ccccc2c1C=C1C(=O)NN=C1OC(C)C` [Example 244, 3-Isopropoxy-4-[(2-methylindol-3-yl)methylene]-2-pyrazolin-5-one] as the molecule, how does the melting point read?
Answer: Its melting point is 262 to 264 °C.

Question: Which melting point does the source give for `Cc1cccc2c(C=C3C(=O)NN=C3OC(C)C)c[nH]c12` [Example 245, 3-Isopropoxy-4-[(7-methylindol-3-yl)methylene]-2-pyrazolin-5-one] here?
Answer: The melting point was 254 to 256 °C.

Question: For `Cc1cccc2c(C=C3C(=O)NN=C3CCc3ccccc3)c[nH]c12` [Example 246, 4-[(7-Methylindol-3-yl)methylene]-3-phenylethyl-2-pyrazolin-5-one], which melting point is on record?
Answer: Its melting point is 302 to 304 °C.

Question: Which melting point does the source give for `O=C1NN=C(C2CCCC2)C1=Cc1c[nH]c2ccccc12` [Example 247, 3-Cyclopentyl-4-[(indol-3-yl)methylene]-2-pyrazolin-5-one] here?
Answer: Its melting point is 277 to 279 °C.

Question: For `CC(C)OC1=NNC(=O)C1=Cc1cn(C)c2ccccc12` [Example 248, 3-Isopropoxy-4-[(1-methylindol-3-yl)methylene]-2-pyrazolin-5-one], which melting point is on record?
Answer: Its melting point is 239 to 240 °C.

Question: For `COC(=O)c1ccc(CCC2=NNC(=O)C2=Cc2c[nH]c3ccccc23)cc1` [Example 249, 4-[(Indol-3-yl)methylene]-3-(4-methoxycarbonylphenylethyl)-2-pyrazolin-5-one], which melting point is on record?
Answer: Its melting point is 259 to 260 °C.

Question: Which melting point does the source give for `CC(C)OC1=NNC(=O)C1=Cc1cn(C(C)C)c2ccccc12` [Example 250, 3-Isopropoxy-4-[(1-isopropylindol-3-yl)methylene]-2-pyrazolin-5-one] here?
Answer: The melting point was 161 to 163 °C.

Question: For `Cn1cc(C=C2C(=O)NN=C2CCc2ccc(O)cc2)c2ccccc21` [Example 251, 3-(4-Hydroxyphenylethyl)-4-[(1-methylindol-3-yl)methylene]-2-pyrazolin-5-one], which melting point is on record?
Answer: The melting point was 255 to 257 °C.

Question: With `CC(C)C1=NNC(=O)C1=Cc1c[nH]c2ccccc12` [Example 252, 3-Isopropyl-4-[(indol-3-yl)methylene]-2-pyrazolin-5-one] as the molecule, how does the melting point read?
Answer: The melting point was 264 to 266 °C.

Question: For `O=C(CC1=NNC(=O)C1=Cc1c[nH]c2ccccc12)Nc1ccc(Cl)cc1` [Example 253, 3-(4-Chlorophenylaminocarbonylmethyl)-4-[(indol-3-yl)methylene]-2-pyrazolin-5-one], which melting point is on record?
Answer: Its melting point is 305 to 307 °C.

Question: Which melting point does the source give for `CCOC(=O)CC1=NNC(=O)C1=Cc1c[nH]c2ccccc12` [Example 254, 3-Ethoxycarbonylmethyl-4-[(indol-3-yl)methylene]-2-pyrazolin-5-one] here?
Answer: The melting point was 235 to 237 °C.

Question: For `COc1ccc(NC(=O)CC2=NNC(=O)C2=Cc2c[nH]c3ccccc23)cc1` [Example 255, 4-[(Indol-3-yl)methylene]-3-(4-methoxyphenylaminocarbonylmethyl)-2-pyrazolin-5-one], which melting point is on record?
Answer: The melting point was greater than 300 °C.

Question: With `O=C1NN=C(C2CC2)C1=Cc1c[nH]c2ccccc12` [Example 256, 3-Cyclopropyl-4-[(indol-3-yl)methylene]-2-pyrazolin-5-one] as the molecule, how does the melting point read?
Answer: The melting point was 300 to 305 °C.

Question: For `NC(=O)CCC1=NNC(=O)C1=Cc1c[nH]c2ccccc12` [Example 258, 3-(2-Aminocarbonylethyl)-4-[(indol-3-yl)methylene]-2-pyrazolin-5-one], which melting point is on record?
Answer: Its melting point is 280 to 281 °C.

Question: For `O=C1NN=C(C2CCC2)C1=Cc1c[nH]c2ccccc12` [Example 259, 3-Cyclobutyl-4-[(indol-3-yl)methylene]-2-pyrazolin-5-one], which melting point is on record?
Answer: Its melting point is greater than 300 °C.

Question: With `CN(C)C(=O)CCC1=NNC(=O)C1=Cc1c[nH]c2ccccc12` [Example 260, 3-(2-Dimethylaminocarbonylethyl)-4-[(indol-3-yl)methylene]-2-pyrazolin-5-one] as the molecule, how does the melting point read?
Answer: The melting point was 258 to 260 °C.

Question: For `O=C1NN=C(C2CC2)C1=Cc1cn(CCCCO)c2ccccc12` [Example 261, 3-Cyclopropyl-4-{[1-(4-hydroxybutyl)indol-3-yl]methylene}-2-pyrazolin-5-one], which melting point is on record?
Answer: The melting point was 215 to 216 °C.

Question: For `O=C1NN=C(c2ccncc2)C1=Cc1c[nH]c2ccccc12` [Example 262, 4-[(Indol-3-yl)methylene]-3-(4-pyridyl)-2-pyrazolin-5-one], which melting point is on record?
Answer: Its melting point is greater than 300 °C.
